Data reported in PMC6270661, “Antileishmanial Lead Structures from Nature: Analysis of Structure-Activity Relationships of a Compound Library Derived from Caffeic Acid Bornyl Ester” (Molecules, 2014).

Experiments:
[1] = system: L. major promastigotes; experiment: AlamarBlue assay, antileishmanial activity against L. major promastigotes; assay type: cell-based, Leishmania major; conditions: for IC50: mean of two independent experiments; for Selectivity index SI: SI = IC50 for J774.1/IC50 for L. major (promastigotes)
Method: (§1) Antileishmanial activities of the synthesized compounds were evaluated in L. major promastigotes as described before and in L. donovani promastigotes according to Hazra et al.. […] The antiprotozoal activities are presented in Table 1, Table 2 and Table 3 as inhibitory concentrations (IC50). […] Materials and methods for the biological assays have been described before by the authors. […] The protocol for the L. donovani quantitative colorimetric assay is outlined by Hazra et al.. The IC50 values are presented as mean values of two independent experiments against the parasite and macrophages.

[2] = system: L. major amastigotes; experiment: L. major amastigote assay; assay type: cell-based, Leishmania major; conditions: for IC50: Leishmania major; for Selectivity index SI: SI = IC50 for BMDM/IC50 for L. major (amastigotes)
[3] = system: L. donovani promastigotes; experiment: Quantitative colorimetric assay against L. donovani promastigotes; assay type: cell-based; conditions: mean of two independent experiments
Method: as §1

[4] = AlamarBlue cytotoxicity assay on J774.1 macrophages; assay type: cell-based, murine; conditions: mouse, J774.1 macrophage cell line, mean of two independent experiments
[5] = Cytotoxicity against bone marrow derived macrophages (BMDM); assay type: cell-based, murine; conditions: mouse
Text: The amastigote is the intracellular pathogenic form of the parasite in the vertebrate host and therefore the important target. […] With regard to antileishmanial activity cinnamic acid menthyl (20) and […] (19) show good activities combined with low cytotoxicity. […] Materials and methods for the biological assays have been described before by the authors. […] The protocol for the L. donovani quantitative colorimetric assay is outlined by Hazra et al.. The IC50 values are presented as mean values of two independent experiments against the parasite and macrophages.

[6] = system: cysteine-cathepsin (L. major promastigote full-lysate); experiment: Cysteine-cathepsin fluorescence activity assay with L. major promastigote full-lysate; assay type: biochemical, Leishmania major; conditions: preliminary experiments, result in words
[7] = system: J774.1 murine cell line; experiment: AlamarBlue cytotoxicity assay on J774.1 macrophages; assay type: cell-based

Compound | IC50 ([1]; Leishmania major) | IC50 ([3]; Leishmania donovani) | IC50 [4] | melting point | other results
CC1(C)C2CCC1(C)[C@H](OC(=O)/C=C/c1ccc(O)c(O)c1)C2 (stereo partly drawn) [Compound 1, Caffeic Acid (−)-bornyl Ester] | 48.8 µM | 27.3 µM | 8.3 µM | – | IC50 [2]: 47.6 µM; Selectivity index SI [2]: 0.1; IC50 [5]: 5.3 µM; protease inhibitory activity [6]: showed protease inhibitory activity
COc1ccc(/C=C/C(=O)OC2CC3CCC2(C)C3(C)C)cc1O (stereo not drawn) [Compound 2, Isoferulic Acid (−)-bornyl Ester] | – | – | – | – | IC50 [1]: 64.4 µM; IC50 [2]: 39.2 µM; Selectivity index SI [2]: 1.2; IC50 [3]: 41.3 µM; IC50 ([7]; mean of two independent experiments): 48.7 µM; IC50 [5]: 49 µM
CC1(C)C2CCC1(C)C(OC(=O)C=Cc1ccc(Cl)cc1)C2 (stereo not drawn) [Compound 3, 4-Chlorocinnamic Acid (−)-bornyl Ester] | 71.2 µM | > 100 µM | 49.5 µM | 80 to 83 °C | –
CC1(C)C2CCC1(C)C(OC(=O)C=Cc1ccc(Br)cc1)C2 (stereo not drawn) [Compound 4, 4-Bromocinnamic Acid (−)-bornyl Ester] | > 100 µM | > 100 µM | 54.6 µM | 71 to 74 °C | –
CN(C)c1ccc(C=CC(=O)OC2CC3CCC2(C)C3(C)C)cc1 (stereo not drawn) [Compound 5, 4-N-Dimethylaminocinnamic Acid (−)-bornyl Ester] | > 100 µM | > 100 µM | > 100 µM | 114 to 116 °C | –
CC1(C)C2CCC1(C)C(OC(=O)C=Cc1ccc(OCc3ccccc3)cc1)C2 (stereo not drawn) [Compound 6] | > 100 µM | > 100 µM | > 100 µM | 93 to 95 °C | –
CC1(C)C2CCC1(C)C(OC(=O)C=Cc1ccc(O)c(O)c1)C2 (stereo not drawn) [Compound 7, Caffeic Acid Isobornyl Ester] | 45.8 µM | 34.8 µM | 8.8 µM | – | IC50 [2]: 47 µM; Selectivity index SI [2]: 0.2; IC50 [5]: 10.9 µM
COc1ccc(C=CC(=O)OC2CC3CCC2(C)C3(C)C)cc1O (stereo not drawn) [Compound 8, Isoferulic Acid Isobornyl Ester] | 60.6 µM | 74.5 µM | 44.3 µM | – | –
CC1(C)C2CCC1(C)C(OC(=O)C=Cc1ccc([N+](=O)[O-])cc1)C2 (stereo not drawn) [Compound 9, 4-Nitrocinnamic Acid Isobornyl Ester] | > 100 µM | > 100 µM | > 100 µM | 121 to 123 °C | –
Cc1ccc(C(C)C)c(OC(=O)/C=C/c2ccc(O)c(O)c2)c1 [Compound 10, Caffeic Acid Thymyl Ester] | 57.6 µM | 42.1 µM | 9.5 µM | 115 to 117 °C | IC50 [2]: 54.1 µM; Selectivity index SI [2]: 0.2; IC50 [5]: 9.8 µM
COc1ccc(/C=C/C(=O)Oc2cc(C)ccc2C(C)C)cc1O [Compound 11, Isoferulic Acid Thymyl Ester] | 59.8 µM | 79.6 µM | 45.6 µM | – | –
CC1CCC(C(C)C)C(OC(=O)/C=C/c2ccc(O)c(O)c2)C1 (stereo not drawn) [Compound 12, Caffeic Acid Menthyl Ester] | 59.5 µM | 79.4 µM | 1.95 µM | – | –
COc1ccc(/C=C/C(=O)OC2CC(C)CCC2C(C)C)cc1O (stereo not drawn) [Compound 13, Isoferulic Acid Menthyl Ester] | 54.2 µM | > 100 µM | 44.6 µM | – | –
CC1(C)C2CCC1(C)[C@H](OC(=O)/C=C/c1cccc(Cl)c1Cl)C2 (stereo partly drawn) [Compound 14, 2,3-Dichlorocinnamic acid (−)-bornyl ester] | 65.6 µM | > 100 µM | 58.9 µM | 86 to 87 °C | –
CC1(C)C2CCC1(C)C(OC(=O)C=Cc1ccccc1)C2 (stereo not drawn) [Compound 15, Cinnamic Acid (−)-Bornyl Ester] | 39.6 µM | – | 45.2 µM | – | Selectivity index SI [1]: 1.1; IC50 [2]: 10.9 µM; Selectivity index SI [2]: 5.0; IC50 [5]: 54.3 µM; protease inhibitory activity [6]: showed protease inhibitory activity
COc1ccc(/C=C/C(=O)O[C@@H]2CC3CCC2(C)C3(C)C)cc1 (stereo partly drawn) [Compound 16, 4-Methoxycinnamic Acid (−)-Bornyl Ester] | 60.9 µM | > 100 µM | 42.6 µM | 87 to 90 °C | –

Compound | IC50 ([1]; Leishmania major) | IC50 ([3]; Leishmania donovani) | IC50 [4] | melting point | other results
CC1(C)C2CCC1(C)[C@H](OC(=O)/C=C/c1ccc(Cl)cc1Cl)C2 (stereo partly drawn) [Compound 17, 2,4-Dichlorocinnamic Acid (−)-bornyl Ester] | 80.5 µM | > 100 µM | 60.6 µM | 90 to 92 °C | –
CC1(C)C2CCC1(C)[C@@H](OC(=O)/C=C/c1ccccc1)C2 (stereo partly drawn) [Compound 18, Cinnamic Acid Isobornyl Ester] | 64.3 µM | 51.2 µM | 46 µM | – | –
Cc1ccc(C(C)C)c(OC(=O)/C=C/c2ccccc2)c1 [Compound 19, Cinnamic Acid Thymyl Ester] | 55 µM | > 100 µM | 44.8 µM | – | IC50 [2]: 49.1 µM; Selectivity index SI [2]: >3.0; IC50 [5]: > 148 µM
CC1CCC(C(C)C)C(OC(=O)/C=C/c2ccccc2)C1 (stereo not drawn) [Compound 20, Cinnamic Acid Menthyl Ester] | 53.1 µM | 79.7 µM | 44.8 µM | – | IC50 [2]: 19.5 µM; Selectivity index SI [2]: >6.4; IC50 [5]: > 126 µM
O=C(/C=C/c1ccccc1)OC12CC3CC(CC(C3)C1)C2 [Compound 21, Cinnamic Acid Adamantyl Ester] | 60 µM | > 100 µM | 46.7 µM | 66 °C | –
O=C(/C=C/c1ccccc1)Oc1ccc2ccccc2c1 [Compound 22] | 67 µM | 28.7 µM | 44.5 µM | 109 to 110 °C | –
O=C(/C=C/c1ccccc1)OC1CCCCC1 [Compound 23, Cinnamic Acid Cyclohexyl Ester] | > 100 µM | 23.4 µM | > 100 µM | – | –
CC(C)=CCCC(C)(OC(=O)C=Cc1ccccc1)C1CC=C(C)CC1 (stereo not drawn) [Compound 24, Cinnamic Acid Bisabolyl Ester] | > 100 µM | > 100 µM | > 100 µM | – | –
C=CCc1ccc(OC(=O)/C=C/c2ccccc2)c(OC)c1 [Compound 25, Cinnamic Acid Eugenyl Ester] | > 100 µM | 80.3 µM | 32.2 µM | – | –
CC(C)=CCC/C(C)=C/COC(=O)/C=C/c1ccccc1 [Compound 26, Cinnamic Acid Geranyl Ester] | > 100 µM | 41.9 µM | > 100 µM | – | –
CC1(C)C2CCC1(C)C(OC(=O)CCc1ccccc1)C2 (stereo not drawn) [Compound 27] | 50.2 µM | – | > 100 µM | – | Selectivity index SI [1]: >2.0; cytotoxicity J774.1 (in words) ([7]; result in words): did not show cytotoxicity
CC(=O)Oc1ccc(/C=C/C(=O)O[C@@H]2CC3CCC2(C)C3(C)C)cc1OC(C)=O (stereo partly drawn) [Compound 28, 3-(3,4-Bis(acetyloxy))phenyl Propenoic Acid (−)-Bornyl Ester] | 30.7 µM | – | 2.1 µM | – | –
C[C@@H]1[C@H](O)[C@@H](C)/C=C/C=C/C=C/C=C/C=C/C=C/C=C/[C@H](O[C@@H]2O[C@H](C)[C@@H](O)[C@H](N)[C@@H]2O)C[C@@H]2O[C@](O)(C[C@@H](O)C[C@@H](O)[C@H](O)CC[C@@H](O)C[C@@H](O)CC(=O)O[C@H]1C)C[C@H](O)[C@H]2C(=O)O [amphotericin B, reference compound] | – | 0.4 µM | – | – | –
CCCCCCCCCCCCCCCCOP(=O)([O-])OCC[N+](C)(C)C [miltefosine, reference compound] | 36.2 µM | – | 56.5 µM | – | IC50 [2]: 33 µM; Selectivity index SI [2]: 2.0; IC50 [5]: 65.5 µM
N=C(N)c1ccc(OCCCCCOc2ccc(C(=N)N)cc2)cc1 [pentamidine, reference compound] | 82 µM | – | 38.6 µM | – | –
